{"source": "paper PMC5414857", "about": "(Toxicological Sciences, 2017)", "target": "bile salt export pump (BSEP) (Homo sapiens, UniProt O95342)", "sequence (O95342 whole entry)": "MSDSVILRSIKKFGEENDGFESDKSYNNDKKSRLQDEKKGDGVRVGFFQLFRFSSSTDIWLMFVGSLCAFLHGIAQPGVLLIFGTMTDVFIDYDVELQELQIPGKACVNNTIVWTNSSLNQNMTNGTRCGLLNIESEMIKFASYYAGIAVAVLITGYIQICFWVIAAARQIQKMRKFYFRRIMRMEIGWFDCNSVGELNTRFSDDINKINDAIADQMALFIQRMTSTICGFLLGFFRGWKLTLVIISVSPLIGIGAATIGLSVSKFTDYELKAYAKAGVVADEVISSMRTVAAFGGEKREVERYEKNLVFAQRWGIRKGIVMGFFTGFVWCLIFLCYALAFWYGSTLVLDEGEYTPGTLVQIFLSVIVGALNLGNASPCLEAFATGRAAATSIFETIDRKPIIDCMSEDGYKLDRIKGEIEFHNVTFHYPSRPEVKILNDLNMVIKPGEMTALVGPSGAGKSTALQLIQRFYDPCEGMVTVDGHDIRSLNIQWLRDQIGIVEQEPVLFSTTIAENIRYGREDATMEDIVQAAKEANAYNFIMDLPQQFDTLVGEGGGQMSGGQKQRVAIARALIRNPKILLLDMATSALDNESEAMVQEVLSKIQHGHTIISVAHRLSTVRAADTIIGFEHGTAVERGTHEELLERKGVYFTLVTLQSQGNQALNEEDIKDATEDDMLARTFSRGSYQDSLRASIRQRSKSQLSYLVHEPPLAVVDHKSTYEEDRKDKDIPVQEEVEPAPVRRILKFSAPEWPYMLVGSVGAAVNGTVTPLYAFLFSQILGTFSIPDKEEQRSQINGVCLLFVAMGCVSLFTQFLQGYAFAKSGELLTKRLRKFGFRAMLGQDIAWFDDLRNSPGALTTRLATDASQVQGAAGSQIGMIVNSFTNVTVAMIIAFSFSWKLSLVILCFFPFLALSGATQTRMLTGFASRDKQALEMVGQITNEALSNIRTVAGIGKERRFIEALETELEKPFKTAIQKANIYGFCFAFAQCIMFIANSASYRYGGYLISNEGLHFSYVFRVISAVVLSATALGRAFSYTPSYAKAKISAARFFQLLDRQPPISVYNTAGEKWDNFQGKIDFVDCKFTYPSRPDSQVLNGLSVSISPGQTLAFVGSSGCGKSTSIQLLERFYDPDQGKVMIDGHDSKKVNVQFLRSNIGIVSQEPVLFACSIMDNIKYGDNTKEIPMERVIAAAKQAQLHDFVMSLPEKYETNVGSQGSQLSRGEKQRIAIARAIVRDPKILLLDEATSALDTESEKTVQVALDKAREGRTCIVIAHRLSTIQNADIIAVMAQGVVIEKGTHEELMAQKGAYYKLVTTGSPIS", "assay_type": "biochemical", "note": "pIC50: −log10 of the molar value."}
{"smiles": "Cc1cc(OCCCS(C)(=O)=O)cc(C)c1-c1cccc(COc2ccc3c(c2)OC[C@H]3CC(=O)O)c1", "note": "[TAK-875]", "values": [{"measurement": "pIC50", "value": 4.84}]}
